Source: patent US9187523B2 (priority 2006, dated 2015)

Target: plasminogen activator (Pla) (Yersinia pestis, UniProt P17811)
Assay type: biochemical

plasminogen activator (Pla), sequence (P17811 21-312 limits assumed): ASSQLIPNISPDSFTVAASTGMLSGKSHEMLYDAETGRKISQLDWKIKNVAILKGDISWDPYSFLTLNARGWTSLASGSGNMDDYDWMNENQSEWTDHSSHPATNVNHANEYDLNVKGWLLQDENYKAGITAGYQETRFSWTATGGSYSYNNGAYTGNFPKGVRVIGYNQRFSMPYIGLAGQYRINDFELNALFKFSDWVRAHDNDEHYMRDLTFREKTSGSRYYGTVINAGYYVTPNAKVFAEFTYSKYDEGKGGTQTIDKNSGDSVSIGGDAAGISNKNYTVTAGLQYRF

pepstatin A
block of plasminogen activator activity: did not block
